From US12692253B2, “Antimicrobial compounds and methods” (Curza Global, LLC, priority 2019, dated 2026)

How the values were obtained:
[1] = tested on: E. coli S30 extract (bacterial protein synthesis); test: E. coli S30 extract coupled transcription-translation luciferase assay (inhibition of bacterial protein synthesis); assay type: biochemical; conditions: class by IC50 or % inhibition @ 1 μM, read-out: S30 IC50 (μM/% inhib.)
Procedure, shortened: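 Coupled transcription-translation in E. coli S30 circular-DNA extract expressing luciferase from pBESTluc, with 8-point 2-fold compound dilutions; 1 hour at 37 °C, stopped at 4 °C. Luminescence read; % inhibition versus no-inhibitor wells, no-DNA wells as background.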

[2] = target: Rabbit Reticulocyte Lysate (eukaryotic protein synthesis); test: Rabbit reticulocyte lysate luciferase assay (inhibition of eukaryotic protein synthesis); assay type: biochemical; conditions: class by IC50 or % inhibition @ 1 μM, read-out: Rabbit reticulocyte IC50 (μM/% inhib.)
Procedure, shortened: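 In vitro translation of luciferase control RNA in nuclease-treated rabbit reticulocyte lysate with amino acid mixture, compounds in 2-fold serial dilution, 90 minutes at 30° C. Luminescence read after luciferase reagent; % inhibition relative to water no-inhibitor controls, with no-RNA background wells.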

A. baumannn (Ab) = test: Broth microdilution minimum inhibitory concentration (MIC), CLSI; assay type: cell-based; conditions: for MIC: Acinetobacter baumannii, read-out: Ab + bicarb MIC
Procedure, shortened: (§1)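 CLSI M07-A9 broth microdilution, slightly modified: 8 two-fold compound dilutions in triplicate, CAMHB ± bicarbonate (6.25 or 25 mM final) or 0-50% heat-inactivated human serum; 5×10^4 CFU/well.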

E. coli (Ec) = test: as above; assay type: cell-based; conditions: growth medium supplemented with sodium bicarbonate; for MIC: Escherichia coli, read-out: E. coli + bicarb MIC
Procedure, shortened: as §1

S. aureus (Sa) = test: as above; assay type: cell-based; conditions: growth medium supplemented with sodium bicarbonate; for MIC: Staphylococcus aureus, read-out: Sa + bicarb MIC
Procedure, shortened: as §1

P. aeruginosa (Pa) = test: as above; assay type: cell-based; conditions: growth medium supplemented with sodium bicarbonate; for MIC: Pseudomonas aeruginosa, read-out: Pa MIC + bicarb
Procedure, shortened: as §1

E. faecalis (Ef) = test: as above; assay type: cell-based; conditions: growth medium supplemented with sodium bicarbonate; for MIC: Enterococcus faecalis, read-out: Ef + bicarb MIC
Procedure, shortened: as §1

| Structure (SMILES) | IC50 [1] [µM] | IC50 [2] [µM] | MIC (A. baumannn (Ab)) [µg/mL] | MIC (E. coli (Ec)) [µg/mL] | MIC (S. aureus (Sa)) [µg/mL] | MIC (P. aeruginosa (Pa)) [µg/mL] | MIC (E. faecalis (Ef)) [µg/mL] | Ef + bicarb MIC (E. faecalis (Ef)) | Ab + bicarb MIC (A. baumannn (Ab); A. baumannii, growth medium supplemented with sodium bicarbonate) | E. coli + bicarb MIC (E. coli (Ec)) | Sa + bicarb MIC (S. aureus (Sa)) | Pa MIC + bicarb (P. aeruginosa (Pa)) |
| --- | --- | --- | --- | --- | --- | --- | --- | --- | --- | --- | --- | --- |
| CC(C)(N)C(=O)N1CCN(C(=O)Nc2ccn(-c3ccc(CCN4CCC5(CCC5N)CC4)cc3)c(=O)n2)CC1 (stereo not drawn) [Compound 95] | < 0.5 | ≥ 1 | > 32 | < 8 | < 8 | > 32 | > 32 |  |  |  |  |  |
| CC(C)(N)C(=O)N1CCN(C(=O)Nc2ccn(-c3ccc(CCN4CC5CC(N)C5C4)cc3)c(=O)n2)CC1 (stereo not drawn) [Compound 96] | < 0.5 | ≥ 1 | > 32 | < 8 | < 8 | 8 to 32 | < 8 |  |  |  |  |  |
| C[C@@](N)(CO)C(=O)N1CCN(C(=O)Nc2ccn(-c3ccc(CCN4CCC5CC5(N)C4)cc3)c(=O)n2)CC1 (stereo partly drawn) [Compound 99] | 0.5 to 1 | ≥ 1 | > 32 | < 8 | < 8 | > 32 | 8 to 32 |  |  |  |  |  |
| CC(C)(N)C(=O)N1CCN(C(=O)Nc2ccn(-c3ccc(CCN4CCC5CC5(N)C4)c(F)c3)c(=O)n2)CC1 (stereo not drawn) [Compound 100] | < 0.5 | ≥ 1 | 8 to 32 | < 8 | < 8 | > 32 | < 8 |  |  |  |  |  |
| Cc1cc(-n2ccc(NC(=O)N3CCN(C(=O)C(C)(C)N)CC3)nc2=O)ccc1CCN1CCC2CC2(N)C1 (stereo not drawn) [Compound 101] | < 0.5 | ≥ 1 | 8 to 32 | < 8 | < 8 | > 32 | < 8 |  |  |  |  |  |
| CC(C)(N)C(=O)N1CCN(C(=O)Nc2ccn(-c3ccc(CCN4C[C@@H]5[C@@H](CN)[C@@H]5C4)c(C(F)(F)F)c3)c(=O)n2)CC1 [Compound 102] | < 0.5 | ≥ 1 | > 32 | < 8 | < 8 | 8 to 32 | 8 to 32 |  |  |  |  |  |
| CC(C)(N)C(=O)N1CCN(C(=O)Nc2ccn(-c3ccc(CCN4CCC5CC5(N)C4)c(C(F)(F)F)c3)c(=O)n2)CC1 (stereo not drawn) [Compound 103] | 0.5 to 1 | ≥ 1 | > 32 | 8 to 32 | 8 to 32 | > 32 | 8 to 32 |  |  |  |  |  |
| CC(C)(N)C(=O)N1CCN(C(=O)Nc2ccn(-c3ccc(C(N)C(=O)N4C[C@@H]5[C@@H](N)[C@@H]5C4)cc3)c(=O)n2)CC1 (stereo partly drawn) [Compound 105] | ≥ 1 | ≥ 1 | > 32 | > 32 | > 32 | > 32 | > 32 |  |  |  |  |  |
| CC(C)(N)C(=O)N1CCN(C(=O)Nc2ccn(-c3ccc(CCN4C5CCC4CC(N)C5)cc3)c(=O)n2)CC1 (stereo not drawn) [Compound 106] | ≥ 1 | ≥ 1 | > 32 | < 8 | < 8 | > 32 |  | ++ (An MIC value (μg/mL) that is 8 μg/mL or greater and less than 32 μg/mL) |  |  |  |  |
| CC(C)(N)C(=O)N1CCN(C(=O)Nc2ccn(-c3ccc(CCN4CC5(CCC5N)C4)cc3)c(=O)n2)CC1 (stereo not drawn) [Compound 107] | ≥ 1 | ≥ 1 | > 32 | < 8 | < 8 | > 32 | 8 to 32 |  |  |  |  |  |
| CC(C)(N)C(=O)N1CCN(C(=O)Nc2ccn(-c3ccc(CCN4C5CCC4CC(N)C5)cc3)c(=O)n2)CC1 (stereo not drawn) [Compound 108] | ≥ 1 | ≥ 1 |  |  |  |  |  | + (An MIC (μg/mL) value that is 32 μg/mL or greater) | + (An MIC (μg/mL) value that is 32 μg/mL or greater) | +++ (An MIC value (μg/mL) that is less than 8 μg/mL) | +++ (An MIC value (μg/mL) that is less than 8 μg/mL) | + (An MIC (μg/mL) value that is 32 μg/mL or greater) |
| CC(C)(N)C(=O)N1CCN(C(=O)Nc2ccn(-c3cccc(CCN4CC5(CC(N)C5)C4)c3)c(=O)n2)CC1 [Compound 109] | < 0.5 | ≥ 1 | > 32 | < 8 | < 8 | > 32 | > 32 |  |  |  |  |  |
| CC(C)(N)C(=O)N1CCN(C(=O)Nc2ccn(-c3cccc(CCN4CCC5(CC4)CC(N)C5)c3)c(=O)n2)CC1 [Compound 110] | 0.5 to 1 | ≥ 1 | > 32 | < 8 | < 8 | > 32 | 8 to 32 |  |  |  |  |  |
| CC(Cc1ccc(-n2ccc(NC(=O)N3CCN(C(=O)C(C)(C)N)CC3)nc2=O)cc1)N1CC2(CCC2N)C1 (stereo not drawn) [Compound 111] | ≥ 1 | ≥ 1 | > 32 | < 8 | < 8 | > 32 | 8 to 32 |  |  |  |  |  |
| CC(Cc1ccc(-n2ccc(NC(=O)N3CCN(C(=O)C(C)(C)N)CC3)nc2=O)cc1)N1CC2(CC(N)C2)C1 (stereo not drawn) [Compound 112] | 0.5 to 1 | ≥ 1 | > 32 | < 8 | < 8 | > 32 | 8 to 32 |  |  |  |  |  |
| CC(C)(N)C(=O)N1CCN(C(=O)Nc2ccn(-c3cccc(CCN4CC5CCC(C4)C5N)c3)c(=O)n2)CC1 (stereo not drawn) [Compound 113] | ≥ 1 | ≥ 1 | > 32 | < 8 | > 32 | > 32 | > 32 |  |  |  |  |  |
| CC(Cc1ccc(-n2ccc(NC(=O)N3CCN(C(=O)C(C)(C)N)CC3)nc2=O)cc1)N1CCC2(CC1)CC(N)C2 (stereo not drawn) [Compound 114] | < 0.5 | ≥ 1 | 8 to 32 | < 8 | < 8 | 8 to 32 | < 8 |  |  |  |  |  |
| CC(Cc1ccc(-n2ccc(NC(=O)N3CCN(C(=O)[C@@](C)(N)CO)CC3)nc2=O)cc1)N1CCC2(CC1)CC(N)C2 (stereo partly drawn) [Compound 115] | < 0.5 | ≥ 1 | > 32 | < 8 | < 8 | > 32 | < 8 |  |  |  |  |  |
| CC(C)(N)C(=O)N1CCN(C(=O)Nc2ccn(-c3ccc(CCN4C[C@@H]5[C@@H](CN)[C@@H]5C4)cc3)c(=O)n2)CC1 [Compound 116] | < 0.5 | ≥ 1 | < 8 | < 8 | < 8 | 8 to 32 | 8 to 32 |  |  |  |  |  |
| CC(C)(N)C(=O)N1CCN(C(=O)Nc2ccn(-c3ccc(CCN4CC5CC5(CN)C4)cc3)c(=O)n2)CC1 (stereo not drawn) [Compound 117] | < 0.5 | ≥ 1 | 8 to 32 | < 8 | < 8 | 8 to 32 | < 8 |  |  |  |  |  |
| C[C@@](N)(CO)C(=O)N1CCN(C(=O)Nc2ccn(-c3ccc(CCN4CC5CC5(CN)C4)cc3)c(=O)n2)CC1 (stereo partly drawn) [Compound 120] | < 0.5 | ≥ 1 | > 32 | < 8 | < 8 | 8 to 32 | 8 to 32 |  |  |  |  |  |
| CC(CN1C[C@@H]2[C@@H](CN)[C@@H]2C1)c1ccc(-n2ccc(NC(=O)N3CCN(C(=O)C(C)(C)N)CC3)nc2=O)cc1 (stereo partly drawn) [Compound 121] | 0.5 to 1 | ≥ 1 | > 32 | < 8 | < 8 | 8 to 32 | 8 to 32 |  |  |  |  |  |
| CC(Cc1ccc(-n2ccc(NC(=O)N3CCN(C(=O)C(C)(C)N)CC3)nc2=O)cc1)N1C[C@@H]2[C@@H](CN)[C@@H]2C1 (stereo partly drawn) [Compound 122] | < 0.5 | ≥ 1 | 8 to 32 | < 8 | < 8 | < 8 | < 8 |  |  |  |  |  |
| CC(C)(N)C(=O)N1CCN(C(=O)Nc2ccn(-c3ccc(CCN4CC5CC5(CN)C4)c(F)c3)c(=O)n2)CC1 (stereo not drawn) [Compound 123] | < 0.5 | ≥ 1 | > 32 | < 8 | < 8 | > 32 | < 8 |  |  |  |  |  |
| CC(Cc1ccc(-n2ccc(NC(=O)N3CCN(C(=O)C(C)(C)N)C[C@H]3C)nc2=O)cc1)N1C[C@@H]2[C@@H](CN)[C@@H]2C1 (stereo partly drawn) [Compound 124] | < 0.5 | ≥ 1 | > 32 | < 8 | < 8 | 8 to 32 | < 8 |  |  |  |  |  |
| CC(Cc1ccc(-n2ccc(NC(=O)N3CCN(C(=O)[C@@](C)(N)CO)CC3)nc2=O)cc1)N1C[C@@H]2[C@@H](CN)[C@@H]2C1 (stereo partly drawn) [Compound 125] | < 0.5 | ≥ 1 | > 32 | < 8 | < 8 | 8 to 32 | < 8 |  |  |  |  |  |
| Cc1cc(-n2ccc(NC(=O)N3CCN(C(=O)C(C)(C)N)CC3)nc2=O)ccc1CCN1C[C@@H]2[C@@H](CN)[C@@H]2C1 [Compound 126] | < 0.5 | ≥ 1 | 8 to 32 | < 8 | < 8 | 8 to 32 | 8 to 32 |  |  |  |  |  |
